{"source": "patent US20260232726A1", "about": "“USE OF BORON FOR THE TREATMENT OF LEISHMANIASIS DISEASE OF NEURONAL ORIGIN” (YEDITEPE UNIVERSITESI, priority 2023, published 2026)", "key": {"leishmaniasis": {"test_system": "leishmaniasis", "conditions": "cited from earlier work"}, "[1]": {"test_system": "C8-S astrocyte cells infected with L. infantum parasites", "test": "Infection rate of astrocytes infected with parasites after SPT treatment (flow cytometer)", "type": "cell-based, Leishmania infantum", "description": "Leishmania infimtum (MHOM/MA/67/TTMA-P263) promastigotes are incubated in RPMI medium (heat inactivated 1 0/4) fetal bovine serum, 2 mM L-glutamine, 20 mM HEPES, 100 U/ml penicillin, 100 μg/ml streptomycin) at 27° C. Parasites reaching the logarithmic phase (10^6/ml) are made infective.\n(§1) Astrocyte C8-S murine cell line (ATCC) is grown as monolayer in RPMI 1640 nutrient medium (2 mM L-glutamine, 100 U/ml penicillin, 100 μg/ml streptomycin) with 10% FBS, heat inactivated in a humidified atmosphere environment with 5% C02 at 37° C. Cells are passaged at 3-day intervals.\nC8-S astrocytes and L. infantum promastigotes were stained with PKH26 (Red Fluorescent Cell Linker Kit, Sigma-Aldrich) and PKH67 (Green Fluorescent Cell Linker Kit, Sigma-Aldrich), respectively, according to the procedure described previously in the article by Islek et al. (2021). A total cell concentration of 10^7 cells/ml was used. Before infection, the staining rate of parasites and cells was determined by flow cytometry.\n5. Treating the Infected Astrocytes with SPT\nThe effect of SPT on the proliferation of astrocyte cells infected with parasites is analyzed. In summary, astrocytes are infected with parasites at 37° cat a ratio of 10:1 (parasite: astrocyte). After 3 and a half hours, infected astrocytes are washed with medium to remove the remaining parasites. Infected astrocytes are left to incubate with SPT at different concentration ranges for 3 days at 37° C., fixed at the end of 3 days and the infection rate is determined by flow cytometer. The percentage of infection is determined according to the following formula: […]"}, "[2]": {"test_system": "GSH level in astrocytes infected with Leishmania", "test": "Oxidative stress by measurement of glutathione (GSH) level in infected astrocytes (DTNB)", "type": "cell-based, murine", "conditions": "50, 100, 150 and 200 μM SPT; 24 hours", "description": "6. Determining the Oxidative Stress by Measurement of Glutathione (GSH) Level in Astrocytes Infected with Leishmania\nTo determine the GSH level of infected astrocytes, cell lysate (50 ul) is suspended in DTNB (Ellman's reagent—5,5′-Dithiobis(2-nitrobenzoic acid)) (10 uL). Then, EDTA buffer solution (pH 8.2) is added to this mixture in a 96-well plate. After incubation in the dark at 37° C. for 30 minutes, absorbance is measured colorimetrically at a wavelength of 412 nm using a UV spectrophotometer (Thermo Scientific, Finland). The results are expressed as μmol/g protein."}, "[3]": {"test_system": "healthy C8-S astrocyte cells", "test": "Cell viability of healthy astrocytes treated with SPT (MTS method)", "type": "cell-based, murine", "description": "as §1\n3. Treating Astrocytes with SPT and Determining Cell Viability\nCells were seeded in 96-well culture dishes (Coming Glasswork, Coming, NY) in Dulbecco's modified Eagle's medium (DMEM) containing 10% fetal bovine serum (lnvitrogen) and 1% PSA (Biological Industries, Beit Haemek, Israel) at 8.000 cells/well and then treated with SPT, and cell viability levels were measured on days 1, 2 and 3. Cell viability is measured by using 3-(4,5-di-methyl-thiazol-2-yl)-5-(3-carboxy-methoxy-phenyl)-2-(4-sulfo-phenyl)-2H-tetrazolium (MTS)-method (CellTiter96 AqueousOne Solution; Promega, Southampton, UK). 10 μl MTS solution is added onto the cells in 100 μl growth medium and they are incubated in the dark for 2 hours. After the incubation period, viability analysis is obtained by performing absorbance measurement with an ELISA plate reader (Biotek, Winooski, VT) at 490 nm wavelength."}, "[4]": {"conditions": "SPT 50-400 μM, 24, 48 and 72 hours"}}, "note": "Like-named read-outs stand apart in the source and are kept apart here."}
{"smiles": "CCCCCCCCCCCCCCCCOP(=O)([O-])OCC[N+](C)(C)C", "note": "[Miltefosine]", "values": [{"measurement": "cure", "setting": "leishmaniasis; miltefosine data compared with 6-month Amphotericin B therapy", "value": 94, "unit": "%"}, {"measurement": "cure", "setting": "leishmaniasis; oral, 3-4-week treatment", "value": "95-100%"}]}
{"smiles": "O.O.O.O.[Na+].[O-]B1OO1", "note": "[SPT, sodium perborate tetrahydrate]", "values": [{"measurement": "infection rate of infected astrocytes", "setting": "[1]; 75 μM SPT, 24 hours, negative control approximately 23%", "value": "20±3.33", "unit": "%"}, {"measurement": "infection rate of infected astrocytes", "setting": "[1]; 75 μM SPT, 72 hours, negative control 13%", "value": "approximately 4%"}, {"measurement": "infection rate of infected astrocytes", "setting": "[1]; 100 μM SPT, 24 hours, negative control approximately 23%", "value": "17±2.86", "unit": "%"}, {"measurement": "infection rate of infected astrocytes", "setting": "[1]; 150 μM SPT, 24 hours, negative control approximately 23%", "value": "11.89±3.56", "unit": "%"}, {"measurement": "infection rate of infected astrocytes", "setting": "[1]; 200 μM SPT, 24 hours, negative control approximately 23%", "value": "7.97±1.51", "unit": "%"}, {"measurement": "infection rate of infected astrocytes", "setting": "[1]; 400 μM SPT, 24 hours, negative control approximately 23%", "value": "12.63±1.78", "unit": "%"}, {"measurement": "infection rate of infected astrocytes", "setting": "[1]; 100, 150, 200, and 400 μM SPT, 72 hours, negative control 13%", "value": "~7", "unit": "%"}, {"measurement": "cell viability on astrocytes infected with Leishmania infantum promastigotes", "setting": "[1]; [4]", "value": "statistically decreased cell viability"}, {"measurement": "effect on cells infected with L. infantum parasites", "setting": "[1]; SPT 75-200 μM", "value": "significant reduction"}, {"measurement": "GSH levels in infected astrocytes compared to the negative control", "setting": "[2]", "value": "significantly inducing GSH levels"}, {"measurement": "astrocyte cell viability compared to the negative control group", "setting": "[3]; 100 μM SPT, after 72 hours", "value": 100, "unit": "%"}, {"measurement": "cell viability of healthy C8-S astrocytes", "setting": "[3]; 200 μM SPT, 24, 48 and 72 hours", "value": "above 100%"}, {"measurement": "toxic effect on healthy cells", "setting": "[3]; [4]", "value": "showed no toxic effect on healthy cells"}]}
{"smiles": "C[C@@H]1[C@H](O)[C@@H](C)/C=C/C=C/C=C/C=C/C=C/C=C/C=C/[C@H](O[C@@H]2O[C@H](C)[C@@H](O)[C@H](N)[C@@H]2O)C[C@@H]2O[C@](O)(C[C@@H](O)C[C@@H](O)[C@H](O)CC[C@@H](O)C[C@@H](O)CC(=O)O[C@H]1C)C[C@H](O)[C@H]2C(=O)O", "note": "[Amphotericin B]", "values": [{"measurement": "cure", "setting": "leishmaniasis; 6-month therapy", "value": 97, "unit": "%"}, {"measurement": "cure rate", "setting": "leishmaniasis; cases where antimonial resistance is observed", "value": "~100", "unit": "%"}]}
